Consider eight molecules from PubChem BioAssay (NCI).

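96-well plates; 48 h exposure; 5 concentrations. Endpoints by linear interpolation between flanking doses. Not reached: highest tested concentration assigned. TGI denotes the concentration required for complete inhibition of growth.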

One experiment deals with MDA-N. Nature of the experiment: growth of human tumour cells (NCI), 48 h.
In the case of `Cc1ccc(C2=Nc3cccc4cccc(c34)N2)cc1`, the TGI is > 100 µM.
The same measure, in the same setting: the value for `N#CC12C(=O)N3C(=NC(c4ccccc4)NC3c3ccccc3)C1(C#N)C(c1ccccc1)NC1=C2CCC1` (stereo not given) was > 100 µM; that for `O=C(/C=C/c1ccccc1)CCN1CCN(CCC(=O)/C=C/c2ccccc2)CC1` was 6.79 µM.
The same measure, in the same setting: the value for `COC(=O)c1ccccc1CC1Cc2ccc3c(c2C1=O)CCC3` (stereo not given) was > 100 µM.
As to `CS(=O)(=O)N1CC(CCl)c2ccc([N+](=O)[O-])cc21` (stereo not given), the TGI is > 100 µM.
The same measure, in the same setting: the value for `N=c1oc2c(Cl)cc(Cl)cc2cc1C(=O)Nc1cccc2ccccc12` was > 100 µM; that for `O=c1cc(NNc2ccccc2)[nH]c(=S)[nH]1` was > 100 µM.
On the same count and under the same terms, the same measure for `CC(=O)NC(CS/N=N/c1nc[nH]c1C(N)=O)C(=O)O` (stereo not given): > 100 µM.

Another experiment deals with SW-620 colon. Nature of the experiment: growth of human tumour cells (NCI), 48 h.
For the molecule `Cc1ccc(C2=Nc3cccc4cccc(c34)N2)cc1`, the TGI was > 100 µM.
The same measure, in the same setting: the value for `N#CC12C(=O)N3C(=NC(c4ccccc4)NC3c3ccccc3)C1(C#N)C(c1ccccc1)NC1=C2CCC1` (stereo not given) was > 100 µM.
Still for that read-out and setting: the same measure for `O=C(/C=C/c1ccccc1)CCN1CCN(CCC(=O)/C=C/c2ccccc2)CC1`: 17.4 µM; for `COC(=O)c1ccccc1CC1Cc2ccc3c(c2C1=O)CCC3` (stereo not given): > 100 µM.
The same measure, in the same setting: the same measure for `CS(=O)(=O)N1CC(CCl)c2ccc([N+](=O)[O-])cc21` (stereo not given): > 100 µM.
Regarding `N=c1oc2c(Cl)cc(Cl)cc2cc1C(=O)Nc1cccc2ccccc12`, the TGI turned out to be 27.1 µM.
Consider `O=c1cc(NNc2ccccc2)[nH]c(=S)[nH]1`, for which the TGI was 49.5 µM.
The same measure, in the same setting: the same measure for `CC(=O)NC(CS/N=N/c1nc[nH]c1C(N)=O)C(=O)O` (stereo not given): > 100 µM.

The test system of a further experiment is MDA-MB-231 breast. Nature of the experiment: growth of human tumour cells (NCI), 48 h.
For the molecule `Cc1ccc(C2=Nc3cccc4cccc(c34)N2)cc1`, the TGI is > 100 µM.
Same read-out and setting: the value for `N#CC12C(=O)N3C(=NC(c4ccccc4)NC3c3ccccc3)C1(C#N)C(c1ccccc1)NC1=C2CCC1` (stereo not given) was > 100 µM; that for `O=C(/C=C/c1ccccc1)CCN1CCN(CCC(=O)/C=C/c2ccccc2)CC1` was 17 µM; that for `COC(=O)c1ccccc1CC1Cc2ccc3c(c2C1=O)CCC3` (stereo not given) was > 100 µM.
Still for that read-out and setting: the same measure for `CS(=O)(=O)N1CC(CCl)c2ccc([N+](=O)[O-])cc21` (stereo not given): > 100 µM; for `N=c1oc2c(Cl)cc(Cl)cc2cc1C(=O)Nc1cccc2ccccc12`: 11.3 µM; for `O=c1cc(NNc2ccccc2)[nH]c(=S)[nH]1`: 65.2 µM.
Still for that read-out and setting: the same measure for `CC(=O)NC(CS/N=N/c1nc[nH]c1C(N)=O)C(=O)O` (stereo not given): > 27.8 µM.

The subject of a further experiment is DU-145 prostate. The experiment can be described thus: growth of human tumour cells (NCI), 48 h.
Take `Cc1ccc(C2=Nc3cccc4cccc(c34)N2)cc1`: the TGI is > 100 µM.
On the same count and under the same terms, the same measure for `N#CC12C(=O)N3C(=NC(c4ccccc4)NC3c3ccccc3)C1(C#N)C(c1ccccc1)NC1=C2CCC1` (stereo not given): > 100 µM.
On the same count and under the same terms, the value for `O=C(/C=C/c1ccccc1)CCN1CCN(CCC(=O)/C=C/c2ccccc2)CC1` was 31.5 µM; that for `COC(=O)c1ccccc1CC1Cc2ccc3c(c2C1=O)CCC3` (stereo not given) was > 100 µM.
On the same count and under the same terms, the same measure for `CS(=O)(=O)N1CC(CCl)c2ccc([N+](=O)[O-])cc21` (stereo not given): > 100 µM; for `N=c1oc2c(Cl)cc(Cl)cc2cc1C(=O)Nc1cccc2ccccc12`: > 100 µM; for `O=c1cc(NNc2ccccc2)[nH]c(=S)[nH]1`: > 100 µM.
On to `CC(=O)NC(CS/N=N/c1nc[nH]c1C(N)=O)C(=O)O` (stereo not given), for which the TGI is > 100 µM.

Another experiment deals with HOP-62 NSCLC. The experiment can be described thus: growth of human tumour cells (NCI), 48 h.
For the molecule `Cc1ccc(C2=Nc3cccc4cccc(c34)N2)cc1`, the TGI is > 100 µM.
As to `N#CC12C(=O)N3C(=NC(c4ccccc4)NC3c3ccccc3)C1(C#N)C(c1ccccc1)NC1=C2CCC1` (stereo not given), the TGI was > 100 µM.
The same measure, in the same setting: the same measure for `O=C(/C=C/c1ccccc1)CCN1CCN(CCC(=O)/C=C/c2ccccc2)CC1`: 43.9 µM; for `COC(=O)c1ccccc1CC1Cc2ccc3c(c2C1=O)CCC3` (stereo not given): > 100 µM.
On the same count and under the same terms, the same measure for `CS(=O)(=O)N1CC(CCl)c2ccc([N+](=O)[O-])cc21` (stereo not given): > 100 µM; for `N=c1oc2c(Cl)cc(Cl)cc2cc1C(=O)Nc1cccc2ccccc12`: 42.3 µM; for `O=c1cc(NNc2ccccc2)[nH]c(=S)[nH]1`: > 100 µM.
On the same count and under the same terms, the value for `CC(=O)NC(CS/N=N/c1nc[nH]c1C(N)=O)C(=O)O` (stereo not given) was > 100 µM.

For the next experiment, the system named is LOX IMVI melanoma. The experiment can be described thus: growth of human tumour cells (NCI), 48 h.
Regarding `Cc1ccc(C2=Nc3cccc4cccc(c34)N2)cc1`, the TGI is > 100 µM.
Take `N#CC12C(=O)N3C(=NC(c4ccccc4)NC3c3ccccc3)C1(C#N)C(c1ccccc1)NC1=C2CCC1` (stereo not given): the TGI was > 100 µM.
`O=C(/C=C/c1ccccc1)CCN1CCN(CCC(=O)/C=C/c2ccccc2)CC1` registered a TGI of 5.88 µM.
Same read-out and setting: the same measure for `COC(=O)c1ccccc1CC1Cc2ccc3c(c2C1=O)CCC3` (stereo not given): > 100 µM; for `CS(=O)(=O)N1CC(CCl)c2ccc([N+](=O)[O-])cc21` (stereo not given): > 100 µM.
The same measure, in the same setting: the value for `N=c1oc2c(Cl)cc(Cl)cc2cc1C(=O)Nc1cccc2ccccc12` was > 24 µM; that for `O=c1cc(NNc2ccccc2)[nH]c(=S)[nH]1` was 31.3 µM; that for `CC(=O)NC(CS/N=N/c1nc[nH]c1C(N)=O)C(=O)O` (stereo not given) was > 100 µM.

The next experiment deals with ACHN renal. Nature of the experiment: growth of human tumour cells (NCI), 48 h.
Consider `Cc1ccc(C2=Nc3cccc4cccc(c34)N2)cc1`, for which the TGI is > 100 µM.
Still for that read-out and setting: the value for `N#CC12C(=O)N3C(=NC(c4ccccc4)NC3c3ccccc3)C1(C#N)C(c1ccccc1)NC1=C2CCC1` (stereo not given) was > 100 µM; that for `O=C(/C=C/c1ccccc1)CCN1CCN(CCC(=O)/C=C/c2ccccc2)CC1` was 29.5 µM; that for `COC(=O)c1ccccc1CC1Cc2ccc3c(c2C1=O)CCC3` (stereo not given) was > 100 µM.
Turning to `CS(=O)(=O)N1CC(CCl)c2ccc([N+](=O)[O-])cc21` (stereo not given), the TGI is > 100 µM.
Same read-out and setting: the value for `N=c1oc2c(Cl)cc(Cl)cc2cc1C(=O)Nc1cccc2ccccc12` was 11.2 µM; that for `O=c1cc(NNc2ccccc2)[nH]c(=S)[nH]1` was > 100 µM.
Turning to `CC(=O)NC(CS/N=N/c1nc[nH]c1C(N)=O)C(=O)O` (stereo not given), the TGI is > 100 µM.

Another experiment relates to BT-549 breast. Nature of the experiment: growth of human tumour cells (NCI), 48 h.
Take `Cc1ccc(C2=Nc3cccc4cccc(c34)N2)cc1`: the TGI is > 100 µM.
Still for that read-out and setting: the same measure for `N#CC12C(=O)N3C(=NC(c4ccccc4)NC3c3ccccc3)C1(C#N)C(c1ccccc1)NC1=C2CCC1` (stereo not given): > 100 µM; for `O=C(/C=C/c1ccccc1)CCN1CCN(CCC(=O)/C=C/c2ccccc2)CC1`: 28.4 µM.
With `COC(=O)c1ccccc1CC1Cc2ccc3c(c2C1=O)CCC3` (stereo not given), the TGI was > 100 µM.
As for `CS(=O)(=O)N1CC(CCl)c2ccc([N+](=O)[O-])cc21` (stereo not given), the TGI was > 100 µM.
On the same count and under the same terms, the same measure for `N=c1oc2c(Cl)cc(Cl)cc2cc1C(=O)Nc1cccc2ccccc12`: > 100 µM.
On the same count and under the same terms, the same measure for `O=c1cc(NNc2ccccc2)[nH]c(=S)[nH]1`: > 100 µM.
The same measure, in the same setting: the same measure for `CC(=O)NC(CS/N=N/c1nc[nH]c1C(N)=O)C(=O)O` (stereo not given): > 100 µM.

The next experiment deals with UO-31 renal. The experiment can be described thus: growth of human tumour cells (NCI), 48 h.
With `Cc1ccc(C2=Nc3cccc4cccc(c34)N2)cc1`, the TGI is > 100 µM.
For `N#CC12C(=O)N3C(=NC(c4ccccc4)NC3c3ccccc3)C1(C#N)C(c1ccccc1)NC1=C2CCC1` (stereo not given), the TGI is > 100 µM.
`O=C(/C=C/c1ccccc1)CCN1CCN(CCC(=O)/C=C/c2ccccc2)CC1` had a TGI of 30.8 µM.
Same read-out and setting: the same measure for `COC(=O)c1ccccc1CC1Cc2ccc3c(c2C1=O)CCC3` (stereo not given): > 100 µM; for `CS(=O)(=O)N1CC(CCl)c2ccc([N+](=O)[O-])cc21` (stereo not given): > 100 µM; for `N=c1oc2c(Cl)cc(Cl)cc2cc1C(=O)Nc1cccc2ccccc12`: > 40.9 µM.
On to `O=c1cc(NNc2ccccc2)[nH]c(=S)[nH]1`, for which the TGI was > 100 µM.
Still for that read-out and setting: the value for `CC(=O)NC(CS/N=N/c1nc[nH]c1C(N)=O)C(=O)O` (stereo not given) was > 100 µM.

Another experiment has as its system NCI-H522 lung. The experiment can be described thus: growth of human tumour cells (NCI), 48 h.
Regarding `Cc1ccc(C2=Nc3cccc4cccc(c34)N2)cc1`, the TGI is > 100 µM.
Consider `N#CC12C(=O)N3C(=NC(c4ccccc4)NC3c3ccccc3)C1(C#N)C(c1ccccc1)NC1=C2CCC1` (stereo not given), for which the TGI was > 100 µM.
For `O=C(/C=C/c1ccccc1)CCN1CCN(CCC(=O)/C=C/c2ccccc2)CC1`, the TGI is 30 µM.
On the same count and under the same terms, the value for `COC(=O)c1ccccc1CC1Cc2ccc3c(c2C1=O)CCC3` (stereo not given) was 88 µM.
The same measure, in the same setting: the value for `CS(=O)(=O)N1CC(CCl)c2ccc([N+](=O)[O-])cc21` (stereo not given) was > 100 µM.
On the same count and under the same terms, the same measure for `N=c1oc2c(Cl)cc(Cl)cc2cc1C(=O)Nc1cccc2ccccc12`: > 100 µM; for `O=c1cc(NNc2ccccc2)[nH]c(=S)[nH]1`: 35.7 µM; for `CC(=O)NC(CS/N=N/c1nc[nH]c1C(N)=O)C(=O)O` (stereo not given): > 100 µM.
